Where two headings read alike, the source gives them in different places.
Test system: cancer cells
Assay: MTS cell growth inhibition assay (72 hours)
Assay type: cell-based
Protocol: Cells were maintained at 37° C., 5% CO2 in DMEM media supplemented with 1% fetal bovine serum, penicillin/streptomycin and fungizone (Invitrogen). Cells were seeded into 96-well tissue culture plates at 3000 per well and cultured at 37° C. for 18 hours. Test compounds were dissolved and diluted to 300× in DMSO then further diluted 1:40 in DMEM before addition to cells (1:7.5 dilution). Cells were incubated with test compounds for 72 hours followed by incubation with tetrazolium compound (3-(4,5-dimethylthiazol-2-yl)-5-(3-carboxymethoxyphenyl)-2-(4-sulfophenyl)-2H-tetrazolium, inner salt; MTS) and the electron coupling reagent, phenazine methosulfate (PMS) for 4 hours. […] The ability of compounds to inhibit cell growth in this assay is correlated with the reduction of dehydrogenase enzyme activity found in metabolically active cells. The measurement of the absorbance of the formazan was assessed using an ENVISION™ (Perkin Elmer) microplate reader at 492 nm. The calculated IC50 value is the concentration of the test compound that causes a 50% decrease in the absorbance. […] A=>79% inhibition, B=>50 to 79% inhibition, C=<50% inhibition.

[1] = Homo sapiens, DLD-1, 72 h, DLD-1 cells, read-out: DLD-1 MTS 72 hr at 10 μM
[2] = Homo sapiens, KATO III, 72 h, KATO III cells, read-out: KATO III MTS 72 hr at 10 μM
[3] = Homo sapiens, MDA-MB-231, 72 h, MDA-MB-231 cells, read-out: MDA-MB-231 MTS 72 hr at 10 μM
[4] = Homo sapiens, NCI-H1299, 72 h, NCI-H1299 cells, read-out: NCI-H1299 MTS 72 hr at 10 μM
[5] = PaCa-2, 72 h, PACA-2 cells, read-out: PACA-2 MTS 72 hr at 10 μM

Cc1cccc(C(=O)N2CC(Nc3nc(N)nc4[nH]ncc34)Cc3ccccc32)c1 (centres unmarked) [Compound 82, (3-(6-amino-1H-pyrazolo[3,4-d]pyrimidin-4-ylamino)-3,4-dihydroquinolin-1(2H)-yl)(m-tolyl)methanone]
inhibition at 10 µM [1]: < 50%
inhibition at 10 µM [2]: < 50%
inhibition at 10 µM [3]: < 50%
inhibition at 10 µM [4]: < 50%
inhibition at 10 µM [5]: < 50%

COc1ccc(CCNC(=O)N2CC(Nc3nc(N)nc4[nH]ncc34)Cc3ccccc32)cc1 (centres unmarked) [Compound 116, 3-(6-amino-1H-pyrazolo[3,4-d]pyrimidin-4-ylamino)-N-(4-methoxyphenethyl)-3,4-dihydroquinoline-1(2H)-carboxamide]
inhibition at 10 µM [1]: < 50%
inhibition at 10 µM [2]: < 50%
inhibition at 10 µM [3]: < 50%
inhibition at 10 µM [4]: < 50%
inhibition at 10 µM [5]: < 50%

Nc1nc(NC2Cc3ccccc3N(S(=O)(=O)c3cccc(NC(=O)Nc4cccc(Cl)c4Cl)c3)C2)c2cn[nH]c2n1 (centres unmarked) [Compound 211, 1-[3-({3-[(6-amino-1H-pyrazolo[3,4-d]pyrimidin-4-yl)amino]-3,4-dihydroquinolin-1(2H)-yl}sulfonyl)phenyl]-3-(2,3-dichlorophenyl)urea]
inhibition at 10 µM [1]: > 79%
inhibition at 10 µM [2]: > 79%
inhibition at 10 µM [3]: > 79%
inhibition at 10 µM [4]: > 79%
inhibition at 10 µM [5]: > 79%

CCC(C)(C)c1ccc(S(=O)(=O)N2CC(Nc3nc(N)nc4[nH]ncc34)Cc3ccccc32)cc1 (centres unmarked) [Compound 61, N4-(1-(4-tert-pentylphenylsulfonyl)-1,2,3,4-tetrahydroquinolin-3-yl)-1H-pyrazolo[3,4-d]pyrimidine-4,6-diamine]
inhibition at 10 µM [1]: < 50%
inhibition at 10 µM [2]: < 50%
inhibition at 10 µM [3]: < 50%
inhibition at 10 µM [4]: < 50%
inhibition at 10 µM [5]: < 50%

Nc1nc(NC2Cc3ccccc3N(C(=O)c3c(F)ccc(Cl)c3F)C2)c2cn[nH]c2n1 (centres unmarked) [Compound 104, (3-(6-amino-1H-pyrazolo[3,4-d]pyrimidin-4-ylamino)-3,4-dihydroquinolin-1(2H)-yl)(3-chloro-2,6-difluorophenyl)methanone]
inhibition at 10 µM [1]: < 50%
inhibition at 10 µM [2]: < 50%
inhibition at 10 µM [3]: < 50%
inhibition at 10 µM [4]: < 50%
inhibition at 10 µM [5]: < 50%

Nc1nc(NC2Cc3ccccc3N(S(=O)(=O)c3ccc(Oc4ccccc4)nc3)C2)c2cn[nH]c2n1 (centres unmarked) [Compound 64, N4-(1-(6-phenoxypyridin-3-ylsulfonyl)-1,2,3,4-tetrahydroquinolin-3-yl)-1H-pyrazolo[3,4-d]pyrimidine-4,6-diamine]
inhibition at 10 µM [1]: < 50%
inhibition at 10 µM [2]: < 50%
inhibition at 10 µM [3]: < 50%
inhibition at 10 µM [4]: < 50%
inhibition at 10 µM [5]: < 50%

Nc1nc(NC2Cc3ccccc3N(C(=O)c3ccc(F)cc3F)C2)c2cn[nH]c2n1 (centres unmarked) [Compound 86, (3-(6-amino-1H-pyrazolo[3,4-d]pyrimidin-4-ylamino)-3,4-dihydroquinolin-1(2H)-yl)(2,4-difluorophenyl)methanone]
inhibition at 10 µM [1]: < 50%
inhibition at 10 µM [2]: < 50%
inhibition at 10 µM [3]: < 50%
inhibition at 10 µM [4]: < 50%
inhibition at 10 µM [5]: < 50%

CCc1ccccc1NC(=O)N1CC(Nc2nc(N)nc3[nH]ncc23)Cc2ccccc21 (centres unmarked) [Compound 107, 3-(6-amino-1H-pyrazolo[3,4-d]pyrimidin-4-ylamino)-N-(2-ethylphenyl)-3,4-dihydroquinoline-1(2H)-carboxamide]
inhibition at 10 µM [1]: < 50%
inhibition at 10 µM [2]: < 50%
inhibition at 10 µM [3]: < 50%
inhibition at 10 µM [4]: < 50%
inhibition at 10 µM [5]: < 50%

Nc1nc(NC2Cc3ccccc3N(S(=O)(=O)c3ccc(C(F)(F)F)cc3)C2)c2cn[nH]c2n1 (centres unmarked) [Compound 44, N4-(1-(4-(trifluoromethyl)phenylsulfonyl)-1,2,3,4-tetrahydroquinolin-3-yl)-1H-pyrazolo[3,4-d]pyrimidine-4,6-diamine]
inhibition at 10 µM [1]: < 50%
inhibition at 10 µM [2]: < 50%
inhibition at 10 µM [3]: < 50%
inhibition at 10 µM [4]: < 50%
inhibition at 10 µM [5]: < 50%

Cc1ccc(S(=O)(=O)N2CCC(Nc3nc(N)nc4[nH]ncc34)Cc3ccccc32)cc1 (centres unmarked) [Compound 177, N4-{1-[(4-methylphenyl)sulfonyl]-2,3,4,5-tetrahydro-1H-1-benzazepin-4-yl}-1H-pyrazolo[3,4-d]pyrimidine-4,6-diamine]
inhibition at 10 µM [1]: < 50%
inhibition at 10 µM [2]: < 50%
inhibition at 10 µM [3]: < 50%
inhibition at 10 µM [4]: < 50%
inhibition at 10 µM [5]: < 50%

Nc1nc(NC2Cc3ccccc3N(S(=O)(=O)c3ccc(NC(=O)Nc4ccc5c(c4)Cc4ccccc4-5)cc3)C2)c2cn[nH]c2n1 (centres unmarked) [Compound 198, 1-[4-({3-[(6-amino-1H-pyrazolo[3,4-d]pyrimidin-4-yl)amino]-3,4-dihydroquinolin-1(2H)-yl}sulfonyl)phenyl]-3-(9H-fluoren-2-yl)urea]
inhibition at 10 µM [1]: > 79%
inhibition at 10 µM [2]: > 79%
inhibition at 10 µM [3]: < 50%
inhibition at 10 µM [4]: > 79%
inhibition at 10 µM [5]: < 50%

Nc1nc(NC2Cc3ccccc3N(C(=O)Cc3cccc4ccccc34)C2)c2cn[nH]c2n1 (centres unmarked) [Compound 98, 1-(3-(6-amino-1H-pyrazolo[3,4-d]pyrimidin-4-ylamino)-3,4-dihydroquinolin-1(2H)-yl)-2-(naphthalen-1-yl)ethanone]
inhibition at 10 µM [1]: < 50%
inhibition at 10 µM [2]: < 50%
inhibition at 10 µM [3]: < 50%
inhibition at 10 µM [4]: < 50%
inhibition at 10 µM [5]: < 50%

Nc1nc(NC2Cc3ccccc3N(S(=O)(=O)c3ccc(C(F)(F)F)cc3Cl)C2)c2cn[nH]c2n1 (centres unmarked) [Compound 74, N4-(1-(2-chloro-4-(trifluoromethyl)phenylsulfonyl)-1,2,3,4-tetrahydroquinolin-3-yl)-1H-pyrazolo[3,4-d]pyrimidine-4,6-diamine]
inhibition at 10 µM [1]: < 50%
inhibition at 10 µM [2]: < 50%
inhibition at 10 µM [3]: < 50%
inhibition at 10 µM [4]: < 50%
inhibition at 10 µM [5]: < 50%

Nc1nc(NC2Cc3ccccc3N(C(=O)c3cc(Cl)cc(Cl)c3)C2)c2cn[nH]c2n1 (centres unmarked) [Compound 90, (3-(6-amino-1H-pyrazolo[3,4-d]pyrimidin-4-ylamino)-3,4-dihydroquinolin-1(2H)-yl)(3,5-dichlorophenyl)methanone]
inhibition at 10 µM [1]: > 79%
inhibition at 10 µM [2]: > 79%
inhibition at 10 µM [3]: > 79%
inhibition at 10 µM [4]: > 79%
inhibition at 10 µM [5]: > 79%

Nc1nc(NC2Cc3ccccc3N(C(=O)COc3ccccc3)C2)c2cn[nH]c2n1 (centres unmarked) [Compound 85, 1-(3-(6-amino-1H-pyrazolo[3,4-d]pyrimidin-4-ylamino)-3,4-dihydroquinolin-1(2H)-yl)-2-phenoxyethanone]
inhibition at 10 µM [1]: < 50%
inhibition at 10 µM [2]: < 50%
inhibition at 10 µM [3]: < 50%
inhibition at 10 µM [4]: < 50%
inhibition at 10 µM [5]: < 50%

Cc1ccccc1NC(=O)Nc1cccc(S(=O)(=O)N2CC(Nc3nc(N)nc4[nH]ncc34)Cc3ccccc32)c1 (centres unmarked) [Compound 213, 1-[3-({3-[(6-amino-1H-pyrazolo[3,4-d]pyrimidin-4-yl)amino]-3,4-dihydroquinolin-1(2H)-yl}sulfonyl)phenyl]-3-(2-methylphenyl)urea]
inhibition at 10 µM [1]: < 50%
inhibition at 10 µM [2]: > 79%
inhibition at 10 µM [3]: < 50%
inhibition at 10 µM [4]: < 50%
inhibition at 10 µM [5]: 50 to 79%
